From patent US20230357266A1, “PHOTOA[…] AND USES THEREOF” (priority 2022, published 2023)

What was measured:
acetylated BSA = molecular target: T1, acetylated BSA (Bos taurus, UniProt P02769); assay: Light-induced covalent labeling of model protein (slot blot, anti-biotin detection), with or without iridium catalyst Ir-9049; assay type: biochemical; details: 50 μM probe, 0.8 μM acetylated BSA, no catalyst, 20 minutes at 365 nm or 455 nm
T1 construct: purchased Promega
Experimental: The capacity of these vinyl-extended aryl-azide-based photoreactive groups to undergo activation by either UV or visible 455 nm light in the presence or absence of a catalyst for subsequent covalent crosslinking with neighboring proteins was further evaluated through labeling efficiency of a model protein (FIGS. 4 and 5). […] Plates remained in the dark (control) or irradiated using Efficiency Aggregators biophotoreactor for 20 minutes at either 365 nm (100% UV=^˜80 W) or 455 nm (100%=^˜80 W or 2% 2 W). To evaluate subsequent covalent labeling efficiencies, reactions were subjected to Zeba column clean-up (ThermoFisher) to remove non-crosslinked vinyl-extended-aryl-azide-biotin probes and then spotted on nitrocellulose membranes using a slot blot apparatus. Membranes were then blocked with 5% BSA (Promega) in TBST for 1 hour at room temperature and subsequently incubated overnight at 4° C. with anti-biotin antibody (Invitrogen) in TBST. The next day membranes were washed 3 times with TBST and then incubated for an hour with a secondary anti-goat-HRP-antibody (Jackson laboratories). Following three washes in TBST, membranes were treated with ECL substrate (Promega) and scanned on the chemiluminescence channel to detect BSA labeled with biotin. […]

[1] = comparator value for simple phenyl-azide; cited from earlier work

T1 sequence (P02769 25-607): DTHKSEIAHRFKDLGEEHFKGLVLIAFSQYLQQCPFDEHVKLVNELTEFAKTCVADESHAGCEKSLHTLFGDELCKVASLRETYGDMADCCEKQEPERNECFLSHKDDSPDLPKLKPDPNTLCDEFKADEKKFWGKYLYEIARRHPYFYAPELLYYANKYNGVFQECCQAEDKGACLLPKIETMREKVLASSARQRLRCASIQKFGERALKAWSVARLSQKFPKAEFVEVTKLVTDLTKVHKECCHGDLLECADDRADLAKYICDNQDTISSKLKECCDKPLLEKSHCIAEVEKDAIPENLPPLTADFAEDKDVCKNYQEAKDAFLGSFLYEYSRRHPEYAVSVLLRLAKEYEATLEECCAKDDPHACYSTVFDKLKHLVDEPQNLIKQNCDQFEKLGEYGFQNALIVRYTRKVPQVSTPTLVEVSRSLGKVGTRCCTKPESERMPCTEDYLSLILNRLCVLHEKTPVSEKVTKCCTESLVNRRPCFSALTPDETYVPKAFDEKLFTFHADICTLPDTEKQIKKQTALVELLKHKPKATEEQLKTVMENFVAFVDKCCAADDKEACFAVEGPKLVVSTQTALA

Compound	UV versus 455 nm activation efficiencies (quantitated band volumes) (acetylated BSA)	λmax [1]
C/C(=C\C(=O)NCCOCCOCCOCCOCCNC(=O)CCCC[C@@H]1SC[C@@H]2NC(=O)N[C@@H]21)c1ccc2cc(N=[N+]=[N-])ccc2c1 [Compound 9582]	greater 455 nm activation efficiencies	–
C/C(=C\C(=O)NCCOCCOCCOCCOCCNC(=O)CCCC[C@@H]1SC[C@@H]2NC(=O)N[C@@H]21)c1ccc2cc(N=[N+]=[N-])c(C#N)cc2c1 [Compound 9616]	greater 455 nm activation efficiencies	–
[N-]=[N+]=Nc1ccccc1 [phenyl-azide]	–	~260 nm
